This is an account of results in paper PMC5666514 (Chemical Science, 2015).

The subject of data set [1] is A-549 lung carcinoma cells. The experiment in a line: cells. The data set is classed as cell-based, human. The method, then: (§1) The twelve synthesized compounds were evaluated in vitro using the following four human cancer cell lines: cervical adenocarcinoma (HeLa), lung carcinoma (A-549), breast adenocarcinoma (SK-BR-3) and colon adenocarcinoma (HT-29). Cells were treated for 24 h with various concentrations of the compounds, and their cytotoxic activity was then assessed using the [3-(4,5-dimethylthiazol-2-yl)-2,5-diphenyltetrazolium] bromide (MTT) assay.[29] Analysis of the dose-response data obtained yielded IC50 (50% inhibitory concentration) values, which are detailed in Table 1.
(§2) Normally growing cells were plated at 5 × 10^3 cells per well into 96-well plates and incubated for 24 h at 37 °C to allow attachment to the surface. Samples were then added dissolved in a DMSO–PBS vehicle (less than 1% in culture medium) at a range of concentrations. Drugs were run in triplicate or greater and control wells contained appropriate percentages of vehicle. After 24 h of exposure, the antitumor effect was measured using a solution of MTT, which is bioreduced by viable cells into formazan. The formed crystals were solubilized using DMSO and the amount of formazan was measured by reading the absorbance at 570 nm. The absorbance of wells containing only the MTT reagent (the plate blank) was subtracted from all wells.
(§3) The IC50 values were determined by dose response curve analysis and statistical analysis using GraphPad Prism software version 5.0a. […]
(§4) mM L-glutamine and antibiotics.
(§5) in a humidified atmosphere containing 5% CO2. For sub-culturing, cells were detached from
(§6) 5 mL of fresh medium preheated at 37 °C. Cellular density was determined in a Neubauer

The test system of data set [2] is HT-29 colon adenocarcinoma cells. The experiment in a line: cells. The data set is classed as cell-based, human. The method, then:
as §1, §2, §3, §4, §5, §6

For data set [3], the system named is HeLa cervical adenocarcinoma cells. The experiment in a line: cells. The data set is classed as cell-based, human. The method, then:
as §1, §2, §3, §4, §5, §6

The subject of data set [4] is SK-BR-3 breast adenocarcinoma cells. The experiment in a line: cells. The data set is classed as cell-based, human. The method, then:
as §1, §2, §3, §4, §5, §6

For data set [5], the system named is red blood cells. The following applies: human RBCs, PBS, 1 h at 37 °C, concentrations up to 100 μM, absorbance 560 nm, n=3.
The subject of data set [6] is HeLa cells. The experiment in a line: DEVDase (caspase 3/7) activity, Ac-DEVD-AFC substrate. Particulars: 100 nM, 16 h of treatment. The data set is classed as cell-based, human.
Method: Data are mean ± s.e.m. […] Data are given as mean ± s.e.m. […] Non-treated cells were used as control. (F, right panel) Densitometric quantification of cleaved caspase 3 and cleaved PARP levels (relative to control, non-treated cells). β-actin was used for loading normalization. Data are mean ± s.e.m.
Thus, we used the fluorogenic substrate Ac–DEVD–AFC as an indicator of the activation of effector caspases, which are the executioners of apoptosis.
(E) HeLa cells were treated as in (D) and apoptosis was assessed by DEVDase activity (right panel) and western blot of PARP1 and caspase-3 (left panel). β-actin was used for loading normalization. Data are mean ± s.e.m.
DEVDase activity was determined in 30 g of RIPA total protein cell lysate (without protease
inhibitors). Cleavage of the fluorogenic substrated Ac-DEVD-AFC. Caspase 3 and PARP
cleavage were determined in 50 g RIPA total protein cell lysate of control and treated cells.
Data set [7] concerns DNA (footprinting substrates MS1 and HexA). The experiment in a line: DNase I footprinting. The data set is classed as binding. The following applies: MS1 and HexA fragments; RZ compounds up to 500 μM (RZ2 up to 1 mM).
From the text: compounds are 500 M and 100 M; the concentrations for echinomycin are 10 M and 5 M.
Where [8] appears, read: MTT assay, 24 h exposure, run in triplicate or greater, read-out: IC50, Lung A-549.
Where [9] appears, read: MTT assay, 24 h exposure, run in triplicate or greater, read-out: IC50, Colon HT-29.
The mark [10] stands for this setting: MTT assay, 24 h exposure, run in triplicate or greater, read-out: IC50, Cervix HeLa.
Where [11] appears, read: MTT assay, 24 h exposure, run in triplicate or greater, read-out: IC50, Breast SK-BR-3.

Where two headings read alike, the source gives them in different places. *1 amine or outer side, *2 acyl side, *3 side chain or, on linkers, in order; H or OH if unused. Where a SMILES comes first, the peptide text is derived from it. Bridges are numbered along the chain shown (N, C = ends). Roman numbers before positions name the chains, in order. [ ]: non-standard residue; d: D form. The star is where a group is joined. Quinoxaline2carbonyl = O=C(c1cnc2ccccc2n1)*; Ethylenediamine = C(CN[*:2])N[*:1]; NMeV = CN[C@H](C(=O)O)C(C)C; NMeC = CN[C@@H](CS)C(=O)O; Abu = CC[C@H](N)C(=O)O

As for `CC[C@H](NC(=O)[C@H](CO)NC(=O)c1cnc2ccccc2n1)C(=O)N[C@H](C(=O)N[C@H](C(=O)N1CCC[C@@H]1C(=O)NCC(=O)N[C@H](C(=O)N[C@H](C(=O)N[C@@H](CC)C(=O)NCCNC(=O)c1cnc2ccccc2n1)C(C)C)C(C)C)C(C)C)C(C)C` [RZ2] (Quinoxaline2carbonyl-S[Abu]VV[dP]GVV[Abu]-{Ethylenediamine-Quinoxaline2carbonyl}), the IC50 worked out at 11.9 µM in data set [1] (setting [8]), 6.8 µM in data set [2] (setting [9]), 2.7 µM in data set [3] (setting [10]) and 5.4 µM in data set [4] (setting [11]). Further, in data set [5], the “hemolysis (hemoglobin release from red blood cells)” value is “not hemolytic”.

Consider `CC[C@H](NC(=O)[C@@H](NC(=O)[C@@H](NC(=O)CNC(=O)[C@H]1CCCN1C(=O)[C@@H](NC(=O)[C@@H](NC(=O)[C@H](CC)NC(=O)[C@@H](CO)NC(=O)c1cnc2ccccc2n1)C(C)C)[C@@H](C)CC)[C@@H](C)CC)C(C)C)C(=O)NCCNC(=O)c1cnc2ccccc2n1` [RZ12] (Quinoxaline2carbonyl-[dS][Abu]VI[dP]GIV[Abu]-{Ethylenediamine-Quinoxaline2carbonyl}), for which the IC50 is 82.2 µM in data set [1] (24 h), above 100 µM in data set [2] (24 h), 55.4 µM in data set [3] (24 h) and 71.6 µM in data set [4] (24 h).

Turning to `CC(C)[C@H]1C(=O)OC[C@@H](NC(=O)c2cnc3ccccc3n2)C(=O)N[C@@H](C)C(=O)N(C)[C@H]2CSSC[C@@H](C(=O)N1C)N(C)C(=O)[C@H](C)NC(=O)[C@H](NC(=O)c1cnc3ccccc3n1)COC(=O)[C@H](C(C)C)N(C)C2=O` [Triostin A, reference compound] (I: Quinoxaline2carbonyl-[dS]A[NMeC][NMeV] / II: Quinoxaline2carbonyl-[dS]A[NMeC][NMeV]; ester I:1-II:C, I:C-II:1; disulfide I:3-II:3), the IC50 in data set [1] (setting [8]) amounted to 23.5 µM; in data set [2] (setting [9]), 24.7 µM; in data set [3] (setting [10]), 18.8 µM; in data set [4] (setting [11]), 23.1 µM.

As to `CO/C1=C\C(C)=C\[C@@H](C)[C@@H](O)[C@@H](C)C/C(C)=C/C=C/[C@H](OC)[C@@H]([C@@H](C)[C@@H](O)[C@H](C)[C@@]2(O)C[C@@H](O)[C@H](C)[C@@H](C(C)C)O2)OC1=O` [bafilomycin A1], the “apoptosis induction (DEVDase activity, PARP1 and caspase-3 western blot)” value in data set [6] is recorded as “induces apoptosis”.

As to echinomycin, the “DNase I footprint (DNA binding)” value in data set [7] is “Clear footprints”.

One may read the IC50 as the concentration needed to halve the response being measured.
